From the supplement of paper PMC11061612

What was measured:
Capivasertib = compound: C1CN(CCC1(C(=O)N[C@@H](CCO)C2=CC=C(C=C2)Cl)N)C3=NC=NC4=C3C=CN4 [Capivasertib]; settings: max 10 µM
Method in brief: (§1)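 In 1536-well plates, cancer cell lines in 7.5 μl DMEM/F12 or RPMI with 10% FBS spent 24 hours at 37°C and 5% CO2 and were then dosed for 72 hours with final DMSO typically 0.2%. Viability was read by CellTiter-Glo 2.0 luminescence and scaled between blank-well and DMSO-well means. The single-agent IC50 was fitted from dose responses using a logistic curve in a non-linear mixed effects model, and that logistic curve had two parameters.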

AZD1775 = compound: C=CCn1c(=O)c2cnc(Nc3ccc(N4CCN(C)CC4)cc3)nc2n1-c1cccc(C(C)(C)O)n1 [AZD1775]; settings: max 3 µM
Method in brief: as §1

Trametinib = compound: CC(=O)Nc1cccc(-n2c(=O)n(C3CC3)c(=O)c3c(Nc4ccc(I)cc4F)n(C)c(=O)c(C)c32)c1 [Trametinib]; settings: max 1 µM
Method in brief: as §1

Palbociclib = compound: CC(=O)c1c(C)c2cnc(Nc3ccc(N4CCNCC4)cn3)nc2n(C2CCCC2)c1=O [Palbociclib]; settings: max 10 µM
Method in brief: as §1

AZD1390 = compound: CC(C)n1c(=O)n(C)c2cnc3cc(F)c(-c4ccc(OCCCN5CCCCC5)nc4)cc3c21 [AZD1390]; settings: max 0.3 µM
Method in brief: as §1

Venetoclax = compound: CC1(C)CCC(CN2CCN(c3ccc(C(=O)NS(=O)(=O)c4ccc(NCC5CCOCC5)c([N+](=O)[O-])c4)c(Oc4cnc5[nH]ccc5c4)c3)CC2)=C(c2ccc(Cl)cc2)C1 [Venetoclax]; settings: max 1 µM
Method in brief: as §1

Dasatinib = compound: CC1=C(C(=CC=C1)Cl)NC(=O)C2=CN=C(S2)NC3=CC(=NC(=N3)C)N4CCN(CC4)CCO [Dasatinib]; settings: max 2 µM
Method in brief: as §1

SG3199 = compound: CC1=CN2[C@@H](C1)C=NC3=CC(=C(C=C3C2=O)OC)OCCCCCOC4=C(C=C5C(=C4)N=C[C@@H]6CC(=CN6C5=O)C)OC [SG3199]; settings: max 0.001 µM
Method in brief: as §1

AZD2811 = compound: CCN(CCO)CCCOc1ccc2c(Nc3cc(CC(=O)Nc4cccc(F)c4)[nH]n3)ncnc2c1 [AZD2811]; settings: max 1 µM
Method in brief: as §1

SN-38 = compound: CCc1c2c(nc3ccc(O)cc13)-c1cc3c(c(=O)n1C2)COC(=O)[C@]3(O)CC [SN-38]; settings: max 0.3 µM
Method in brief: as §1

AZD0156 = compound: CN(C)CCCOc1ccc(-c2ccc3ncc4c(c3c2)n(C2CCOCC2)c(=O)n4C)cn1 [AZD0156]; settings: max 3 µM
Method in brief: as §1

AZD4320 = compound: CN(CC[C@H](CSC1=CC=CC=C1)NC2=C(C=C(C=C2)S(=O)(=O)NC(=O)C3=CC=C(C=C3)N4CCC(CC4)[C@H](C5=CC=CC=C5C6=CC=C(C=C6)Cl)O)S(=O)(=O)C(F)(F)F)CCO [AZD4320]; settings: max 1 µM
Method in brief: as §1

Alisertib = compound: COc1cc(Nc2ncc3c(n2)-c2ccc(Cl)cc2C(c2c(F)cccc2OC)=NC3)ccc1C(=O)O [Alisertib]; settings: max 10 µM
Method in brief: as §1

Gefitinib = compound: COc1cc2ncnc(Nc3ccc(F)c(Cl)c3)c2cc1OCCCN1CCOCC1 [Gefitinib]; settings: max 10 µM
Method in brief: as §1

Prexasertib = compound: COc1cccc(OCCCN)c1-c1cc(Nc2cnc(C#N)cn2)n[nH]1 [Prexasertib]; settings: max 1 µM
Method in brief: as §1

Doxorubicin = compound: COc1cccc2c1C(=O)c1c(O)c3c(c(O)c1C2=O)C[C@@](O)(C(=O)CO)C[C@@H]3O[C@H]1C[C@H](N)[C@H](O)[C@H](C)O1 [Doxorubicin]; settings: max 1 µM
Method in brief: as §1

AZD5153 = compound: COc1nnc2ccc(N3CCC(c4ccc(OCCN5CCN(C)C(=O)[C@H]5C)cc4)CC3)nn12 [AZD5153]; settings: max 1 µM
Method in brief: as §1

Lapatinib = compound: CS(=O)(=O)CCNCc1ccc(-c2ccc3ncnc(Nc4ccc(OCc5cccc(F)c5)c(Cl)c4)c3c2)o1 [Lapatinib]; settings: max 10 µM
Method in brief: as §1

AZD8186 = compound: C[C@@H](Nc1cc(F)cc(F)c1)c1cc(C(=O)N(C)C)cc2c(=O)cc(N3CCOCC3)oc12 [AZD8186]; settings: max 3 µM
Method in brief: as §1

Crizotinib = compound: C[C@@H](Oc1cc(-c2cnn(C3CCNCC3)c2)cnc1N)c1c(Cl)ccc(F)c1Cl [Crizotinib]; settings: max 10 µM
Method in brief: as §1

Savolitinib = compound: C[C@@H](c1ccc2nccn2c1)n1nnc2ncc(-c3cnn(C)c3)nc21 [Savolitinib]; settings: max 1 µM
Method in brief: as §1

AZD6738 = compound: C[C@@H]1COCCN1C2=NC(=NC(=C2)C3(CC3)[S@](=N)(=O)C)C4=C5C=CNC5=NC=C4 [AZD6738]; settings: max 10 µM
Method in brief: as §1

AZD5991 = compound: Cc1c2c(nn1C)CSCc1cc(n(C)n1)CSc1cc(c3ccccc3c1)OCCCc1c(C(=O)O)n(C)c3c-2c(Cl)ccc13 [AZD5991]; settings: max 1 µM
Method in brief: as §1

AZD7648 = compound: Cc1cc2ncnn2cc1Nc1ncc2c(n1)n(C1CCOCC1)c(=O)n2C [AZD7648]; settings: max 10 µM
Method in brief: as §1

Taselisib = compound: Cc1nc(-c2cn3c(n2)-c2ccc(-c4cnn(C(C)(C)C(N)=O)c4)cc2OCC3)n(C(C)C)n1 [Taselisib]; settings: max 10 µM
Method in brief: as §1

Selumetinib = compound: Cn1cnc2c(F)c(Nc3ccc(Br)cc3Cl)c(C(=O)NOCCO)cc21 [Selumetinib]; settings: max 10 µM
Method in brief: as §1

MK-2206 = compound: NC1(c2ccc(-c3nc4ccn5c(=O)[nH]nc5c4cc3-c3ccccc3)cc2)CCC1 [MK-2206]; settings: max 10 µM
Method in brief: as §1

Olaparib = compound: O=C(c1cc(Cc2n[nH]c(=O)c3ccccc23)ccc1F)N1CCN(C(=O)C2CC2)CC1 [Olaparib]; settings: max 10 µM
Method in brief: as §1

Cell Line	IC50, cell viability 72 h (Capivasertib)	IC50, cell viability 72 h (AZD1775)	IC50, cell viability 72 h (Trametinib)	IC50, cell viability 72 h (Palbociclib)	IC50, cell viability 72 h (AZD1390)	IC50, cell viability 72 h (Venetoclax)	IC50, cell viability 72 h (Dasatinib)	IC50, cell viability 72 h (SG3199)	IC50, cell viability 72 h (AZD2811)	IC50, cell viability 72 h (SN-38)	IC50, cell viability 72 h (AZD0156)	IC50, cell viability 72 h (AZD4320)	IC50, cell viability 72 h (Alisertib)	IC50, cell viability 72 h (Gefitinib)	IC50, cell viability 72 h (Prexasertib)	IC50, cell viability 72 h (Doxorubicin)	IC50, cell viability 72 h (AZD5153)	IC50, cell viability 72 h (Lapatinib)	IC50, cell viability 72 h (AZD8186)	IC50, cell viability 72 h (Crizotinib)	IC50, cell viability 72 h (Savolitinib)	IC50, cell viability 72 h (AZD6738)	IC50, cell viability 72 h (AZD5991)	IC50, cell viability 72 h (AZD7648)	IC50, cell viability 72 h (Taselisib)	IC50, cell viability 72 h (Selumetinib)	IC50, cell viability 72 h (MK-2206)	IC50, cell viability 72 h (Olaparib)
ASH-3 (Thyroid Gland Carcinoma)	> 10000 nM	> 3000 nM	> 1000 nM	> 10000 nM	> 300 nM	> 1000 nM	1240 nM	> 1 nM	> 1000 nM	28.8 nM	> 3000 nM	> 1000 nM	> 10000 nM	> 10000 nM	569 nM	688 nM	283 nM	> 10000 nM	> 3000 nM	> 10000 nM	> 1000 nM	> 10000 nM	> 1000 nM	> 10000 nM	6860 nM	> 10000 nM	> 10000 nM	> 10000 nM
OVISE (Ovarian Carcinoma)	> 10000 nM	952 nM	> 1000 nM	> 10000 nM	> 300 nM	> 1000 nM	415 nM	> 1 nM	> 1000 nM	> 300 nM	> 3000 nM	463 nM	8950 nM	> 10000 nM	100 nM	> 1000 nM	681 nM	> 10000 nM	> 3000 nM	> 10000 nM	> 1000 nM	5980 nM	> 1000 nM	> 10000 nM	449 nM	> 10000 nM	> 10000 nM	> 10000 nM
NCI-H1573 (Lung Adenocarcinoma)	> 10000 nM	> 3000 nM	429 nM	> 10000 nM	> 300 nM	> 1000 nM	> 2000 nM	> 1 nM	> 1000 nM	> 300 nM	> 3000 nM	> 1000 nM	> 10000 nM	> 10000 nM	296 nM	> 1000 nM	> 1000 nM	> 10000 nM	> 3000 nM	> 10000 nM	> 1000 nM	> 10000 nM	> 1000 nM	> 10000 nM	> 10000 nM	> 10000 nM	> 10000 nM	> 10000 nM
PF-382 (T-Lymphoblastic Leukemia)	2250 nM	331 nM	> 1000 nM	2080 nM	> 300 nM	> 1000 nM	207 nM	> 1 nM	34.4 nM	3.65 nM	> 3000 nM	175 nM	391 nM	> 10000 nM	17.2 nM	85.8 nM	79 nM	> 10000 nM	> 3000 nM	4070 nM	> 1000 nM	3220 nM	> 1000 nM	> 10000 nM	2780 nM	> 10000 nM	1500 nM	> 10000 nM
MFE-319 (Endometrial Carcinoma)	> 10000 nM	740 nM	> 1000 nM	> 10000 nM	> 300 nM	> 1000 nM	> 2000 nM	> 1 nM	> 1000 nM	> 300 nM	> 3000 nM	> 1000 nM	> 10000 nM	> 10000 nM	51.5 nM	> 1000 nM	> 1000 nM	> 10000 nM	> 3000 nM	> 10000 nM	> 1000 nM	4510 nM	> 1000 nM	> 10000 nM	9920 nM	> 10000 nM	> 10000 nM	> 10000 nM
KU-19-19 (Bladder Carcinoma)	> 10000 nM	462 nM	6.44 nM	> 10000 nM	> 300 nM	> 1000 nM	711 nM	> 1 nM	> 1000 nM	41.6 nM	> 3000 nM	> 1000 nM	5630 nM	> 10000 nM	36.1 nM	447 nM	117 nM	> 10000 nM	> 3000 nM	> 10000 nM	> 1000 nM	2160 nM	> 1000 nM	> 10000 nM	> 10000 nM	678 nM	> 10000 nM	> 10000 nM
